Results: paper PMC10098502, “Characterization of the molecular mechanisms of silicon uptake in coccolithophores” (Environmental Microbiology, 2022)

System: T1, CbSITL
T1 construct: gene SITL
Conditions: Na+-dependent; 150 mM external NaCl, 50 mM Tris pH 7.4, internal 150 mM KCl and 6 mM Zn acetate, valinomycin; sigmoidal rate curve

SMILES: O[Si](O)(O)O [silicic acid]
- Km: 31.8 ± 2.5 µM
